Measurements taken from ChEMBL document CHEMBL1201862, “PubChem BioAssay data set” (2004).
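Following 48 hours of exposure in 96-well plates, responses at five concentrations were used to interpolate endpoints linearly. GI50: concentration for 50% inhibition of growth.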 The source made the active and inactive calls. Cut-off read from the data, not from the text of the source: active = GI50 up to about 1.1 µM and inactive = higher.

Experiments:
Test in all cases: NCI tumour cell line growth inhibition, 48 h
[1] = test system: SR
[2] = test system: SW-620
[3] = test system: HCT-15
[4] = test system: PC-3
[5] = test system: OVCAR-5
[6] = test system: SK-MEL-2
[7] = test system: KM12
[8] = test system: HL-60
[9] = test system: MDA-N
[10] = test system: SF-539
[11] = test system: NCI-H23
[12] = test system: 786-0
[13] = test system: HOP-62
[14] = test system: COLO 205
[15] = test system: SK-OV-3
[16] = test system: HT-29
[17] = test system: SN12C
[18] = test system: Malme-3M
[19] = test system: NCI-H522

Row | SMILES | GI50 [1] | GI50 [2] | GI50 [3] | GI50 [4] | GI50 [5] | GI50 [6] | GI50 [7] | GI50 [8] | GI50 [9] | GI50 [10] | GI50 [11] | GI50 [12] | GI50 [13] | GI50 [14] | GI50 [15] | GI50 [16] | GI50 [17] | GI50 [18] | GI50 [19]
1 | C=CC(=O)N1C/C(=C\c2ccc(OC)cc2)C(=O)/C(=C/c2ccc(OC)cc2)C1 | 0.67 µM (active) | 1.46 µM (inactive) | 1.56 µM | 1.83 µM (inactive) | 4.9 µM (inactive) | 2.68 µM (inactive) | 1.93 µM (inactive) | 0.69 µM (active) | 1.62 µM (inactive) | 1.71 µM (inactive) | 2.01 µM (inactive) | 1.74 µM (inactive) | 2.55 µM (inactive) | 2.99 µM (inactive) | 3.48 µM (inactive) | 0.78 µM (active) | 2.49 µM (inactive) | 2.19 µM (inactive) | 
2 | Cc1ccc(O)c(C2=CC3=NNC(=O)C3C(c3cccc(Cl)c3)C2)c1 (stereo unspecified) | 29.4 µM (inactive) | 38 µM (inactive) | 30.6 µM | 40.6 µM (inactive) | 51.6 µM (inactive) | 28.2 µM (inactive) | 21.8 µM (inactive) | 51.9 µM (inactive) | 29.5 µM (inactive) | 45.2 µM (inactive) | 36.7 µM (inactive) | 52.1 µM (inactive) | 58.9 µM (inactive) | 16 µM (inactive) | 23.9 µM (inactive) | 25.9 µM (inactive) | 32.5 µM (inactive) | 35.3 µM (inactive) | 
3 | O=C(O/N=c1/ccc(=O)/c(=N\OC(=O)c2ccccc2)c1=O)c1ccccc1 | > 100 µM (inactive) | > 100 µM (inactive) | > 100 µM | 76.4 µM (inactive) | > 100 µM (inactive) |  | > 100 µM (inactive) | 0.857 µM (active) | > 100 µM (inactive) | > 100 µM (inactive) | > 100 µM (inactive) | > 100 µM (inactive) | > 100 µM (inactive) | > 100 µM (inactive) | > 100 µM (inactive) | > 100 µM (inactive) | > 100 µM (inactive) |  | > 100 µM (inactive)
4 | CSC1=Nc2ccccc2-c2nc(-c3ccccc3)cc(-c3ccccc3)c2C1 | 31.3 µM (inactive) | 15.7 µM (inactive) | 31.6 µM | 21.4 µM (inactive) | 33 µM (inactive) |  | 24.9 µM (inactive) | > 100 µM (inactive) | 26.5 µM (inactive) | 19.2 µM (inactive) | 12.4 µM (inactive) | 10.2 µM (inactive) | 19.8 µM (inactive) | 55 µM (inactive) | 12.2 µM (inactive) | 30.5 µM (inactive) | 28.2 µM (inactive) |  | 4.7 µM (inactive)
5 | Cn1c2ccccc2c(=O)c2cccc(C(=O)NC(CS)C(=O)O)c21 (stereo unspecified) | 52.8 µM (inactive) | 84.9 µM (inactive) | > 100 µM | > 100 µM (inactive) | > 100 µM (inactive) | > 100 µM (inactive) | > 100 µM (inactive) | < 0.01 µM (active) | > 100 µM (inactive) | 43.2 µM (inactive) | > 100 µM (inactive) | 81.1 µM (inactive) | > 100 µM (inactive) | 67.5 µM (inactive) | > 100 µM (inactive) | > 100 µM (inactive) | > 100 µM (inactive) | > 100 µM (inactive) | 
6 | C[C@H]1C(OCCOC2O[C@@H]3O[C@@]4(C)CC[C@H]5[C@H](C)CCC([C@H]2C)[C@@]35O4)O[C@@H]2O[C@@]3(C)CC[C@H]4[C@H](C)CCC1[C@@]24O3 (stereo partly specified) | 32.2 µM (inactive) | 44.4 µM (inactive) | 28.2 µM | 28.5 µM (inactive) | 50.7 µM (inactive) | 17.7 µM (inactive) | 27.5 µM (inactive) | 24.9 µM (inactive) | 38.7 µM (inactive) | 55.7 µM (inactive) | 31.6 µM (inactive) | 27 µM (inactive) | 37.7 µM (inactive) | 16.7 µM (inactive) | 74.6 µM (inactive) | 35.4 µM (inactive) | 21 µM (inactive) | 15.8 µM (inactive) | 
